Experimental data from US5459256A, “Lipophilic, aminohydrolase-activated prodrugs” (priority 1991, dated 1995).
“Also recorded” adds a separate entry of the source. Like-named read-outs stand apart in the source and are kept apart here.

Assays:
[1] = Octanol-water partition coefficient, microscale shake-flask
Description: Measurement of Octanol-Water Partition Coefficients.
n-Octanol-water partition coefficients (P) were determined by a microscale shake-flask procedure, (Ford, H. et al Abstracts of Papers, 200th National Meeting of the American Chemical Society, Washington, D.C.; American Chemical Society: Washington, D.C., 1990; CARB 13) which was modification of an earlier method (Nahum, A. & Horvath, C. J. Chromatogr. 1980, 192, 315). A 20 μL aliquot of a 0.5 mg/mL DMSO solution of the dideoxynucleoside was dissolved in 1.0 mL of octanol-saturated, pH 7.0, 0.01M potassium phosphate buffer. This was mixed thoroughly with 1.0 ml of buffer-saturated n-octanol in a 2-mL Mixxor apparatus at 24°-26° C. and then allowed to stand for 15 min. The phases were separated, centrifuged at 600×g for 5 min, and the relative concentration of sample in each phase determined by HPLC analysis of a 50 μl aliquot. The partition coefficient was calculated by dividing the absolute area of the appropriate integrated peak from the octanol phase by that of the buffer phase (Table I).
Octanol/pH 7.0 buffer partition coefficients were determined using a newly developed microscale method. […] The addition of a methyl group normally increases the log P value of a compound by about 0.5.

[2] = tested on: HIV-1/IIIB (CD4^+ ATH8 cells); experiment: HIV cytopathic effect inhibition assay in ATH8 cells (% protection); type: cell-based; conditions: for anti-HIV activity (in words): no additive
Description: (§1) HIV Cytopathic Effect Inhibition Assay.
(§2) The HIV cytopathic effect inhibition assay was performed as previously described. (Mitsuya, H. & Broder, S. Proc. Nat. Acad. Sci. USA 1986, 83, 1911) Briefly, 200,000 target CD4^+ ATH8 cells were exposed to cell-free HIV-1/IIIB at a dose of 43 (or 1087 for compound 1g) TCID50 (50% tissue culture infectious dose) for 1 h, resuspended in 2 ml of fresh culture media containing interleukin 2, and cultured at 37° C. with or without test compounds in 5% CO2 -containing humidified air. On day 8 in culture, the viable cells were counted by using the dye exclusion method. All compounds, including inactives, were evaluated a minimum of two times in separate experiments. Data reported in Table II are from representative tests. The % protection against the virus was determined by the following formula: 100 times [(the number of viable cells exposed to HIV-1 and cultured in the presence of the compound minus the number of viable cells exposed to HIV-1 and cultured in the absence of compound) divided by (the number of viable cells cultured alone minus the number of viable cells exposed to HIV-1 and cultured in the absence of the compound)]. The % toxicity of a compound on the target cells was determined by the following formula: 100 times [1 minus (the number of total viable cells cultured in the presence of the compound divided by the number of total viable cells cultured alone)]. Calculated percentages equal to or less than zero are expressed as 0%.
^a ATH8 cells were exposed to HIV1/IIIB per cell for 1 hr and
cultured in the presence of various concentrations of each compound. On
day 8, the total viable cells were counted. Orders of numbers in the
column for concentrations correspond to the orders of numbers in other

[3] = Toxicity on ATH8 target cells (% toxicity, dye exclusion); type: cell-based; conditions: human, ath8 cells
Description: as §1
as §2, with “(Mitsuya, H. & Broder, S. Proc. Nat. Acad. Sci. USA 1986, 83, 1911) Briefly, 200,000 target CD4^+ ATH8 cells were exposed to cell-free HIV-1/IIIB at a dose of 43 (or 1087 for compound 1g) TCID50 (50% tissue culture infectious dose) for 1 h, resuspended in 2 ml of fresh culture media containing interleukin 2, and cultured at 37° C. with or without test compounds in 5% CO2 -containing humidified air.” left out

[4] = target: T1, adenosine deaminase (adenosine aminohydrolase, EC 3.5.4.4) (Bos taurus, UniProt P56658); experiment: Enzymatic deamination by adenosine deaminase (HPLC)
T1 sequence (P56658 1-363): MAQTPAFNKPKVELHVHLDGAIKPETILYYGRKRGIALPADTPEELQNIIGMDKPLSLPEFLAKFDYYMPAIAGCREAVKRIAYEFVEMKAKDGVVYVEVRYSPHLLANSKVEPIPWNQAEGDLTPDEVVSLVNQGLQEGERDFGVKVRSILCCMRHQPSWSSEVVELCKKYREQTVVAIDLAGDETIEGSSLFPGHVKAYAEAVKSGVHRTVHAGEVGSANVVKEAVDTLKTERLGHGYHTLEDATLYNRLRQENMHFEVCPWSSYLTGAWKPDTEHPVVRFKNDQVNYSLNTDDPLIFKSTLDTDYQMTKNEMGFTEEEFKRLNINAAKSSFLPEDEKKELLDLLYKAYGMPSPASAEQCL
Description: FIG. 1. Deamination of dideoxyadenosine analogues by adenosine deaminase. Hydrolysis kinetics and 2'-F-dd-ara-I formation during the incubation of 50 μM N^6 -CH3 -2'-F-dd-ara-A (1f) with 0.7 units/mL of adenosine deaminase at 37° C. A unit of adenosine deaminase is the amount of enzyme which hydrolyzes a standard substrate (e.g., adenosine) at the rate of 1.0 μmole/min at 25° C. and pH 7.5. […] Insert: Adenosine deaminase hydrolysis kinetics for 50 μM ddA and 2'-F-dd-ara-A. The hydrolysis curve for ddA has been extrapolated from kinetics obtained with 0.07 units/mL of adenosine deaminase under identical conditions.
A 50 μl aliquot of a 10 mg/ml suspension of adenosine deaminase (adenosine aminohydrolase, EC 3.5.4.4) from calf intestinal mucosa was centrifuged at 600×g for 3 min. The residue remaining after removal of the (NH4)2 SO4 supernatant was dissolved in 0.5 ml pH 7.4 tris(hydroxymethyl)-aminomethane (Tris) buffer to give an enzyme solution of 1 mg/ml (274 units/ml). […] A pH 7.4 buffer was prepared by adjusting 0.01M Tris to pH 7.4 with 0.5N HCl, The 1.0 HCl , HPLC-grade acetonitrile, monobasic potassium phosphate, sodium hydroxide and ultrapure Tris were all commercially available and were used without further purification.
Enzymatic Deamination of Adenosine Analogues. […] A 50 μL aliquot of substrate solution was diluted with 0.95 ml 0.01M Tris buffer in a 1.5-mL Eppendorf tube and equilibrated at 37° C. in a Dubnoff metabolic shaking incubator. Reaction was initiated by addition of 2.5 μL of adenosine deaminase solution (0.7 unit). At specified time intervals, a 50 μL aliquot of the reaction mixture was withdrawn and quenched by mixing with 0.45 mL cold 2 μM 2'-deoxycoformycin. This diluted sample was ultrafiltered to remove enzyme in a Centrifree Micropartition unit by centrifugation at 600×g at 4° C. in a high speed refrigerated centrifuge. The decrease in substrate concentration was monitored by HPLC analysis of the resultant ultrafiltrate (see below). The ability of 2'-deoxycoformycin to inhibit deamination under the above conditions was evaluated by adding 2 μL of 1.0 mM inhibitor to diluted substrate solutions at the time of equilibration. Reaction, sampling and analysis were carried out as above. […] Initial hydrolysis rates for each substrate concentration were measured through linear least-squares curve fitting of the concentration versus time data for reaction of the first 10% of substrate. KM and vmax values for each substrate were then determined from a graphical lineweaver-Burke plot of these initial rates (FIG. 1).
HPLC Analysis of Dideoxypurine Nucleosides.
Concentrations of dideoxynucleosides were measured by the HPLC analysis of 100 μL aliquots of ultrafiltered samples. A 4.6×250 mm 5-μm Ultrasphere-ODS column, protected by a Waters guard column packed with 37-50 μm Vydac 201SC, was eluted with 10-20% CH3 CN in 0.01M pH 7.0 phosphate buffer at a flow rate of 1.0 mL/min. Dideoxynucleosides and deamination products were detected at the appropriate wavelength of maximum absorption with a Gilson 116 variable wavelength detector. Peak identity was determined from coincidence of retention times with standards and by comparison of on-the-fly UV spectra obtained with a Perkin-Elmer LC-235 diode array detector. Peak areas and peak heights were measured simultaneously on a Spectra-Physics SP4200 computing integrator.

[5] = tested on: CD4^+ ATH8 cells; experiment: Toxicity on ATH8 target cells (% toxicity, dye exclusion); type: cell-based; conditions: for % Toxicity: human
Description: as §1
as §2, with “(Mitsuya, H. & Broder, S. Proc. Nat. Acad. Sci. USA 1986, 83, 1911) Briefly, 200,000 target CD4^+ ATH8 cells were exposed to cell-free HIV-1/IIIB at a dose of 43 (or 1087 for compound 1g) TCID50 (50% tissue culture infectious dose) for 1 h, resuspended in 2 ml of fresh culture media containing interleukin 2, and cultured at 37° C. with or without test compounds in 5% CO2 -containing humidified air.” left out

[6] = octanol/ph 7.0 buffer, pH 7, Log P
[7] = octanol/ph 7.0 buffer, pH 7, octanol/pH 7.0 buffer partition coefficient (P)
[8] = without dCF, read-out: % Toxicity
[9] = additive alone, no test compound

SMILES: Cc1cn([C@H]2C[C@H](N=[N+]=[N-])[C@@H](CO)O2)c(=O)[nH]c1=O [AZT, reference compound]
- partitioning (in words) ([1]; octanol and pH 7.0 buffer): partitions into octanol and pH 7.0 buffer almost equally
- Log P ([1]; octanol/pH 7.0 buffer, 24°-26° C., Table I mean ± standard deviation of three determinations): 0.05 ± 0.01

SMILES: OC[C@@H]1C[C@H](F)[C@H](n2cnc3cncnc32)O1 [Compound 1c, 9-(2',3'-dideoxy-2'-fluoro-β-D-arabinofuranosyl)-9-H-purine]
- logD [1, 6]: -0.4 ± 0.01
- anti-HIV activity (in words) ([2]; ATH8 cells): abolished activity

SMILES: Cc1nc(N)c2ncn([C@@H]3O[C@H](CO)C[C@@H]3F)c2n1 [Compound 1d, 2-methyl-9-(2', 3'-dideoxy-2'-fluoro-β-D-arabinofuranosyl)adenine]
- logD ([1]; octanol/ph 7.0 buffer, pH 7): 0.12 ± 0.02
- anti-HIV activity (in words) ([2]; ATH8 cells): the methyl group in the 2-position abolished activity

SMILES: CNc1nc(C)nc2c1ncn2[C@@H]1O[C@H](CO)C[C@@H]1F [Compound 1e, 2,N^6 -Dimethyl-9-(2',3'-dideoxy-2'-fluoro-β-D-arabinofuranosyl)adenine]
- logD [1, 6]: 0.64 ± 0.01
- anti-HIV activity (in words) ([2]; ATH8 cells): the methyl group in the 2-position abolished activity

SMILES: O=C(Nc1ncnc2c1ncn2[C@@H]1O[C@H](CO)C[C@@H]1F)c1ccccc1 [Compound 1g, N^6-benzoyl-9-(2',3'-dideoxy-2'-fluoro-β-D-arabinofuranosyl)adenine]
- Log P ([1]; octanol/ph 7.0 buffer, pH 7): 0.70 ± 0.02
- logD [1, 6]: 0.73
- logD [1, 7]: 0.732
- anti-HIV activity (in words) ([2]; ATH8 cells): preservation of modest activity
- cytotoxicity at 192 h, 5 µM ([3]; 5 μM, without dCF): 2%
- cytotoxicity at 192 h, 20 µM [3, 8]: 0%
- cytotoxicity at 192 h, 50 µM ([3]; 50 μM, without dCF, read-out: % Toxicity): 0%
- cytotoxicity at 192 h, 100 µM ([3]; 100 μM, without dCF, read-out: % Toxicity): 8%

SMILES: Cc1nc2c(N)ncnc2n1[C@@H]1O[C@H](CO)C[C@@H]1F [Compound 1h, 8-Methyl-9-(2',3'-dideoxy-2'-fluoro-β-D-arabinofuranosyl)adenine]
- logD [1, 6]: 0.1 ± 0.01

SMILES: OC[C@@H]1C[C@H](F)[C@H](n2cnc3c(Cl)ncnc32)O1 [Compound 1i, 6-Chloro-9-(2',3'-dideoxy-2-fluoro-β-D-arabinofuranosyl)purine]
- Measured Relative Rate ([4]; 50 μM substrate, pH 7.4 and 37° C., ddA = 100): 0.06
- vmax ([4]; pH 7.4 and 37° C.): 2.6 × 10^-2 μmol/min/U
- hydrolysis by ADA, times slower than ddA ([4]; vs ddA, 50 μM substrate): ca. 1700 times slower
- logD ([1]; octanol/ph 7.0 buffer, pH 7): 0.32 ± 0.02
- protection to HIV-infected ATH8 cells ([2]; ATH8 cells, concentration not given): ca. 50%
- anti-HIV activity in the presence of dCF (in words) ([2]; ATH8 cells, dCF added): protection was either abolished or greatly decreased; also recorded: can have activity abolished
- anti-HIV activity (in words) ([2]; ATH8 cells): reproducible, albeit unspectacular, activity; also recorded: only moderate anti-HIV activity
- % Toxicity ([5]; 11520 min): 14%
- % Toxicity ([5]; ath8 cells, 192 h, 50 µM): 56%
- % Toxicity ([5]; ath8 cells, 192 h, 100 µM): 72%
- cytotoxicity at 192 h, 50 µM ([3]; % Toxicity): 46%
- cytotoxicity at 192 h, 100 µM ([3]; % Toxicity): 52%

SMILES: Nc1c2ncn([C@@H]3O[C@H](CO)C[C@@H]3F)c2nc[n+]1[O-] [Compound 21, 9-(2',3'-Dideoxy-2'-fluoro-β-D-arabinofuranosyl)adenine-1-oxide]
- deamination by ADA (in words) ([4]; 0.7 U/mL ADA, 37° C.): no deamination was observed
- logD ([1]; octanol/ph 7.0 buffer, pH 7): -1.38
- logD [1, 7]: -1.4
- anti-HIV activity (in words) ([2]; ATH8 cells): abolished activity

SMILES: OC[C@H]1O[C@@H](n2cnc3c2NC=NC[C@H]3O)C[C@@H]1O [dCF, 2'-Deoxycoformycin, reference compound]
- protection by additive alone (in words) [2, 9]: did not produce significant toxicity or protection of ATH8 cells against the effects of HIV-1
- toxicity / viability effect of additive alone (in words) [5, 9]: did not produce significant toxicity

SMILES: O=c1[nH]cnc2c1ncn2[C@H]1CC[C@@H](CO)O1 [ddI, dideoxyinosine, reference compound]
- inhibition at 20 µM ([2]; Human immunodeficiency virus 1, IIIB, ATH-8, 192 h, 20 μM, without dCF): 100%
- cytotoxicity at 192 h, 20 µM [3, 8]: 0%
